Test system: 556581-035-R-J1-PDC complex spheroid growth
Assay: Anticancer human tumor 556581-035-R-J1-PDC patient-derived ovarian carcinoma cell line growth inhibition [AhR]
Settings: for IC50: curve of first compound; for viability, T/C: stronger effect = lower value; active means viability on the fitted dose curve at most 10% of control; inactive means the rest
Method in brief: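 Spheroids combined tumor cells with HUVEC endothelial cells and human MSCs as stroma. AhR antagonists were paired with standard or investigational drugs, each dosed in half-log steps down from near clinical Cmax, or from 10 microM where Cmax was unknown.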

[1] = second compound 0.1 µM, first compound 0.0316 µM
[2] = second compound 0.1 µM, first compound 0.1 µM
[3] = second compound 0.1 µM, first compound 0.316 µM
[4] = second compound 0.1 µM, first compound 1 µM
[5] = second compound 0.316 µM, first compound 0.0316 µM
[6] = second compound 0.316 µM, first compound 0.1 µM
[7] = second compound 0.316 µM, first compound 0.316 µM
[8] = second compound 0.316 µM, first compound 1 µM
[9] = second compound 1 µM, first compound 0.0316 µM
[10] = second compound 1 µM, first compound 0.1 µM
[11] = second compound 1 µM, first compound 0.316 µM
[12] = second compound 1 µM, first compound 1 µM
[13] = second compound 3.16 µM, first compound 0.0316 µM
[14] = second compound 3.16 µM, first compound 0.1 µM
[15] = second compound 3.16 µM, first compound 0.316 µM
[16] = second compound 3.16 µM, first compound 1 µM
[17] = second compound 10 µM, first compound 0.0316 µM
[18] = second compound 10 µM, first compound 0.1 µM
[19] = second compound 10 µM, first compound 0.316 µM
[20] = second compound 10 µM, first compound 1 µM
[21] = second compound 0.1 µM, first compound 0.00949 µM
[22] = second compound 0.1 µM, first compound 0.03 µM
[23] = second compound 0.1 µM, first compound 0.0949 µM
[24] = second compound 0.1 µM, first compound 0.3 µM
[25] = second compound 0.1 µM, first compound 0.949 µM
[26] = second compound 0.1 µM, first compound 3 µM
[27] = second compound 0.316 µM, first compound 0.00949 µM
[28] = second compound 0.316 µM, first compound 0.03 µM
[29] = second compound 0.316 µM, first compound 0.0949 µM
[30] = second compound 0.316 µM, first compound 0.3 µM
[31] = second compound 0.316 µM, first compound 0.949 µM
[32] = second compound 0.316 µM, first compound 3 µM
[33] = second compound 1 µM, first compound 0.00949 µM
[34] = second compound 1 µM, first compound 0.03 µM
[35] = second compound 1 µM, first compound 0.0949 µM
[36] = second compound 1 µM, first compound 0.3 µM
[37] = second compound 1 µM, first compound 0.949 µM
[38] = second compound 1 µM, first compound 3 µM
[39] = second compound 3.16 µM, first compound 0.00949 µM
[40] = second compound 3.16 µM, first compound 0.03 µM
[41] = second compound 3.16 µM, first compound 0.0949 µM
[42] = second compound 3.16 µM, first compound 0.3 µM
[43] = second compound 3.16 µM, first compound 0.949 µM
[44] = second compound 3.16 µM, first compound 3 µM
[45] = second compound 10 µM, first compound 0.00949 µM
[46] = second compound 10 µM, first compound 0.03 µM
[47] = second compound 10 µM, first compound 0.0949 µM
[48] = second compound 10 µM, first compound 0.3 µM
[49] = second compound 10 µM, first compound 0.949 µM
[50] = second compound 10 µM, first compound 3 µM
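Wherever viability, T/C is given: compound exposure lasted 7 days; 100% = DMSO vehicle control growth.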

CC1COCCN1c1cc(-c2ccnn2C)c2ccnc(-c3ccn[nH]3)c2n1 (stereo not given) + Cc1ccccc1N=Nc1ccc(NC(=O)c2ccnn2C)c(C)c1
752 nM: IC50 (second compound 3.16 µM)
inactive: viability, T/C (second compound 0.1 µM, first compound 0.00316 µM) 104% | viability, T/C (second compound 0.1 µM, first compound 0.01 µM) 103% | viability, T/C [1] 101% | viability, T/C [2] 84.8% | viability, T/C [3] 61.5% | viability, T/C [4] 48.6% | viability, T/C (second compound 0.316 µM, first compound 0.00316 µM) 102% | viability, T/C (second compound 0.316 µM, first compound 0.01 µM) 119% | viability, T/C [5] 101% | viability, T/C [6] 76.8% | viability, T/C [7] 63.9% | viability, T/C [8] 51.8% | viability, T/C (second compound 1 µM, first compound 0.00316 µM) 99.6% | viability, T/C (second compound 1 µM, first compound 0.01 µM) 108% | viability, T/C [9] 99.5% | viability, T/C [10] 80% | viability, T/C [11] 62.6% | viability, T/C [12] 54.9% | viability, T/C (second compound 3.16 µM, first compound 0.00316 µM) 105% | viability, T/C (second compound 3.16 µM, first compound 0.01 µM) 103% | viability, T/C [13] 94.8% | viability, T/C [14] 72.6% | viability, T/C [15] 63.8% | viability, T/C [16] 45.4% | viability, T/C (second compound 10 µM, first compound 0.00316 µM) 88.9% | viability, T/C (second compound 10 µM, first compound 0.01 µM) 104% | viability, T/C [17] 85.3% | viability, T/C [18] 73.3% | viability, T/C [19] 61% | viability, T/C [20] 47.9%
894 nM: IC50 (second compound 0.1 µM)
883 nM: IC50 (second compound 10 µM)
> 1000 nM: IC50 (second compound 0.316 µM) | IC50 (second compound 1 µM)

CC1COCCN1c1cc(C2(S(C)(=N)=O)CC2)nc(-c2ccnc3[nH]ccc23)n1 (stereo not given) + Cc1ccccc1N=Nc1ccc(NC(=O)c2ccnn2C)c(C)c1
inactive: viability, T/C [1] 100% | viability, T/C [2] 99.5% | viability, T/C [3] 96.6% | viability, T/C [4] 92.1% | viability, T/C (second compound 0.1 µM, first compound 3.16 µM) 78.4% | viability, T/C (second compound 0.1 µM, first compound 10 µM) 59% | viability, T/C [5] 98.8% | viability, T/C [6] 99.2% | viability, T/C [7] 96.7% | viability, T/C [8] 92% | viability, T/C (second compound 0.316 µM, first compound 3.16 µM) 80.1% | viability, T/C (second compound 0.316 µM, first compound 10 µM) 58.3% | viability, T/C [9] 100% | viability, T/C [10] 100% | viability, T/C [11] 98.6% | viability, T/C [12] 93.9% | viability, T/C (second compound 1 µM, first compound 3.16 µM) 78.4% | viability, T/C (second compound 1 µM, first compound 10 µM) 60% | viability, T/C [13] 95.1% | viability, T/C [14] 98.1% | viability, T/C [15] 95.4% | viability, T/C [16] 88% | viability, T/C (second compound 3.16 µM, first compound 3.16 µM) 73.9% | viability, T/C (second compound 3.16 µM, first compound 10 µM) 58.8% | viability, T/C [17] 96.1% | viability, T/C [18] 97.2% | viability, T/C [19] 93% | viability, T/C [20] 85.2% | viability, T/C (second compound 10 µM, first compound 3.16 µM) 74.5% | viability, T/C (second compound 10 µM, first compound 10 µM) 60.8%
> 10000 nM: IC50 (second compound 0.1 µM) | IC50 (second compound 0.316 µM) | IC50 (second compound 1 µM) | IC50 (second compound 3.16 µM) | IC50 (second compound 10 µM)

CCN(c1cc(-c2ccc(CN3CCOCC3)cc2)cc(C(=O)NCc2c(C)cc(C)[nH]c2=O)c1C)C1CCOCC1 + Cc1ccccc1N=Nc1ccc(NC(=O)c2ccnn2C)c(C)c1
> 3000 nM: IC50 (second compound 0.1 µM) | IC50 (second compound 0.316 µM) | IC50 (second compound 1 µM) | IC50 (second compound 3.16 µM) | IC50 (second compound 10 µM)
inactive: viability, T/C [21] 92% | viability, T/C [22] 97% | viability, T/C [23] 85.8% | viability, T/C [24] 91.5% | viability, T/C [25] 90.9% | viability, T/C [26] 86.8% | viability, T/C [27] 95.2% | viability, T/C [28] 98.2% | viability, T/C [29] 88.9% | viability, T/C [30] 85.4% | viability, T/C [31] 86.2% | viability, T/C [32] 81.1% | viability, T/C [33] 81.4% | viability, T/C [34] 85.6% | viability, T/C [35] 88.4% | viability, T/C [36] 82.6% | viability, T/C [37] 82.4% | viability, T/C [38] 89.1% | viability, T/C [39] 84.5% | viability, T/C [40] 88.1% | viability, T/C [41] 87.6% | viability, T/C [42] 73.9% | viability, T/C [43] 91.8% | viability, T/C [44] 78% | viability, T/C [45] 74.9% | viability, T/C [46] 90.3% | viability, T/C [47] 83.8% | viability, T/C [48] 79% | viability, T/C [49] 77% | viability, T/C [50] 73.4%

Nc1ncn(C2CC(O)C(CO)S2)c(=O)n1 (stereo not given) + Cc1ccccc1N=Nc1ccc(NC(=O)c2ccnn2C)c(C)c1
inactive: viability, T/C (second compound 0.1 µM, first compound 0.000949 µM) 105% | viability, T/C (second compound 0.1 µM, first compound 0.003 µM) 106% | viability, T/C [21] 115% | viability, T/C [22] 97% | viability, T/C [23] 77.8% | viability, T/C [24] 69.5% | viability, T/C (second compound 0.316 µM, first compound 0.000949 µM) 93.6% | viability, T/C (second compound 0.316 µM, first compound 0.003 µM) 111% | viability, T/C [27] 100% | viability, T/C [28] 95.9% | viability, T/C [29] 78.8% | viability, T/C [30] 63.4% | viability, T/C (second compound 1 µM, first compound 0.000949 µM) 99.5% | viability, T/C (second compound 1 µM, first compound 0.003 µM) 106% | viability, T/C [33] 99.9% | viability, T/C [34] 91.5% | viability, T/C [35] 102% | viability, T/C [36] 64.5% | viability, T/C (second compound 3.16 µM, first compound 0.000949 µM) 87.1% | viability, T/C (second compound 3.16 µM, first compound 0.003 µM) 101% | viability, T/C [39] 88.1% | viability, T/C [40] 90.6% | viability, T/C [41] 76.8% | viability, T/C [42] 65.7% | viability, T/C (second compound 10 µM, first compound 0.000949 µM) 90% | viability, T/C (second compound 10 µM, first compound 0.003 µM) 95.2% | viability, T/C [45] 84.1% | viability, T/C [46] 80.1% | viability, T/C [47] 83.1% | viability, T/C [48] 68%
> 300 nM: IC50 (second compound 0.1 µM) | IC50 (second compound 0.316 µM) | IC50 (second compound 1 µM) | IC50 (second compound 3.16 µM) | IC50 (second compound 10 µM)

O=C(C=Cn1cnc(-c2cc(C(F)(F)F)cc(C(F)(F)F)c2)n1)NNc1cnccn1 + Cc1ccccc1N=Nc1ccc(NC(=O)c2ccnn2C)c(C)c1
inactive: viability, T/C [21] 100% | viability, T/C [22] 99.8% | viability, T/C [23] 80.3% | viability, T/C [24] 78.5% | viability, T/C [25] 72.5% | viability, T/C [26] 54.4% | viability, T/C [27] 106% | viability, T/C [28] 92.7% | viability, T/C [29] 91% | viability, T/C [30] 73.3% | viability, T/C [31] 60.7% | viability, T/C [32] 40.8% | viability, T/C [33] 93% | viability, T/C [34] 93.4% | viability, T/C [35] 85.5% | viability, T/C [36] 84.4% | viability, T/C [37] 72.5% | viability, T/C [38] 49.7% | viability, T/C [39] 80.3% | viability, T/C [40] 87.7% | viability, T/C [41] 79.8% | viability, T/C [42] 68.4% | viability, T/C [43] 72.2% | viability, T/C [44] 60.4% | viability, T/C [45] 81.1% | viability, T/C [46] 81.6% | viability, T/C [47] 82.7% | viability, T/C [48] 82.4% | viability, T/C [49] 71.9% | viability, T/C [50] 56.9%
> 3000 nM: IC50 (second compound 0.1 µM) | IC50 (second compound 1 µM) | IC50 (second compound 3.16 µM) | IC50 (second compound 10 µM)
1750 nM: IC50 (second compound 0.316 µM)

Source: PubChem BioAssay AID1918999 (Molecular Pharmacology Branch, DTP, NCI, 2023)
